According to PMC11483378, “Triazole-Based Thiamine Analogues as Inhibitors of Thiamine Pyrophosphate-Dependent Enzymes: 1,3-Dicarboxylate for Metal Binding” (ACS Omega, 2024):

Columns and labels:
Porcine PDH E1 = target: T1, Porcine PDH E1 (Sus scrofa, UniProt P29804); set-up: method as in PMID 37201323; details: assay conditions of previous study; cited from earlier work
T1 sequence (P29804 31-390): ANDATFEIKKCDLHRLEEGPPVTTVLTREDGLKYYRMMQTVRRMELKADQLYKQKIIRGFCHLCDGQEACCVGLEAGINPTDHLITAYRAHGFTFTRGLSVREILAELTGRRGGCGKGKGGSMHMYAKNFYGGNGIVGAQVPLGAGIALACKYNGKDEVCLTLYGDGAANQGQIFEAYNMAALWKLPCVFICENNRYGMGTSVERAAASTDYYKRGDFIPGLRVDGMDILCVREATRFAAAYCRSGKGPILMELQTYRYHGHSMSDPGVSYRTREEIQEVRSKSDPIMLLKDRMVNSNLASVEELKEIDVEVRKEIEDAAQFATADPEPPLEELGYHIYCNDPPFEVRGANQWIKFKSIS

[1] = PAMPA (parallel artificial membrane permeability assay); type: in vitro ADME
Experimental: PAMPA – methods and results (Table S2)
PAMPA was carried out in 96-well microtiter filter plates obtained from Millipore as described1 with some modifications. Each well of the filter plate was impregnated with 15 µL of 5% hexadecane dissolved in hexane (i.e. total amount of hexadecane: 0.75 µL) for at least 10 minutes in ventilated environment to allow for complete evaporation of hexane. Donor compartments were filled with 200 µL compound-containing donor solutions of compounds dissolved in 5% DMSO, phosphate buffered saline PBS) and connected to acceptor plate prefilled with buffer (5% DMSO in PBS, pH 7.4). The resulting sandwich was incubated at room temperature under gentle shaking and wrapped in wet paper towels to avoid evaporation. After 10 hours, the sandwich was disassembled and the solutions in the acceptor and donor were transferred to a disposable UV-transparent plate. UV absorption was measured at wavelengths between 220 and 340 nm using a microplate reader (CLARIOstar).
Compounds were tested at 500 µM. Calibration to determine concentration of compounds were performed with varying compound concentrations in buffer (5% DMSO in PBS).
The artificial membrane permeability is expressed as fraction absorbed (Fa%)2 or log Pe (log of the effective permeability)1. LogD values at pH 7.4 were calculated using MarvinSketch.
Fa% = 100 ∙CA ∙VA / CD0 ∙ VD where: CA = final drug concentration in the acceptor well (µM)
VA = volume in the acceptor well (cm3)
CD0 = Initial drug concentration in the donor well (µM)
VD = volume in the donor well (cm3) log P (cm/s) = log -ln 1-CA/Cequilibrium
S = surface area (cm2), typically 0.268 cm2
Cequilibrium = theoretical equilibrium concentration = [CD ∙VD+CA ∙VA] / [VD+VA] where: CD = final drug concentration in the donor well (µM)
CA = final drug concentration in the acceptor well (µM)
Table S2. Permeability data.
Compounds Fa (%) PAMPA log Pe (cm/s) cLogD (pH = 7.4)

A. viridans PO = A. viridans PO (Aerococcus viridans, UniProt A9X9K8); set-up: method as in PMID 37201323; details: assay conditions of previous study; cited from earlier work
Sequence of A. viridans PO (A9X9K8 entry or part of it): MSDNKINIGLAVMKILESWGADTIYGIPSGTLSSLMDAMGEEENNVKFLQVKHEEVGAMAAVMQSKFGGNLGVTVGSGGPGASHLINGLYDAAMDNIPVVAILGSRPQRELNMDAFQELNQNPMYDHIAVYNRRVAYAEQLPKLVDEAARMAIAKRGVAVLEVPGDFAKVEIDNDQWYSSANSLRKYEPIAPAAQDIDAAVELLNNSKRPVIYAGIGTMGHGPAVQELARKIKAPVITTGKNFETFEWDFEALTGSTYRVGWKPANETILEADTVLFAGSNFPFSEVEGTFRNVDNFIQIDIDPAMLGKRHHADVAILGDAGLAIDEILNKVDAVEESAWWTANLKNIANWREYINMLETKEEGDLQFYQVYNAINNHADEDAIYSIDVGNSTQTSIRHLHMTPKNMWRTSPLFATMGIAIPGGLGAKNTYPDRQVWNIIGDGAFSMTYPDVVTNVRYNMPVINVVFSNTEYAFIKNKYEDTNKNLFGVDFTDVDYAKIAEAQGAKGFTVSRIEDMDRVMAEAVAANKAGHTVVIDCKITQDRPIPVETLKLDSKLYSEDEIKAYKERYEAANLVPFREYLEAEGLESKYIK

E. coli OGDH E1 = E. coli OGDH E1 (Escherichia coli, UniProt P0AFG3); set-up: method as in PMID 37201323; details: assay conditions of previous study; cited from earlier work
Sequence of E. coli OGDH E1 (P0AFG3 whole entry): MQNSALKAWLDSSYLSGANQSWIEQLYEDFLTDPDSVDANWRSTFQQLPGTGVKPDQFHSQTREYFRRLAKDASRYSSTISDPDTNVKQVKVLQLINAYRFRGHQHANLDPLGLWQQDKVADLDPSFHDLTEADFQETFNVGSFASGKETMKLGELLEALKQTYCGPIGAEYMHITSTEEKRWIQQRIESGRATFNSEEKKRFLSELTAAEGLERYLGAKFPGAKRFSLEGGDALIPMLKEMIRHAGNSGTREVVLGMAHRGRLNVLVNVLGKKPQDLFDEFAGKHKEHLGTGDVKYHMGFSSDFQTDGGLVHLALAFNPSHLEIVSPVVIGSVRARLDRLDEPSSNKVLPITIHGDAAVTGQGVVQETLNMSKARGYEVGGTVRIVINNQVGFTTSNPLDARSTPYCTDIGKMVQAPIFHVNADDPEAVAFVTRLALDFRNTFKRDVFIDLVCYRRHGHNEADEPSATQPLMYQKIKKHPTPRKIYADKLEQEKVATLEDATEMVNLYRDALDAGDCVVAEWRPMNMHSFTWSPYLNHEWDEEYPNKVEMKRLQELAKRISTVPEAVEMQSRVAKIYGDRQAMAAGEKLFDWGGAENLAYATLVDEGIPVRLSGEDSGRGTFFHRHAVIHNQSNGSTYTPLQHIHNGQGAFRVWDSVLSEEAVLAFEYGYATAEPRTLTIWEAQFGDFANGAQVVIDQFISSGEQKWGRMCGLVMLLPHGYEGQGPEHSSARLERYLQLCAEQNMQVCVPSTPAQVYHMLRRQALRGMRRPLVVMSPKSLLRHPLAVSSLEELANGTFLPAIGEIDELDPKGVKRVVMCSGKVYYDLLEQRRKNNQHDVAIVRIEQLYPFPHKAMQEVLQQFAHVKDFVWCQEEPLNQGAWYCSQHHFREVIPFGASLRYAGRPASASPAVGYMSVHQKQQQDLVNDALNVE

S. cerevisiae PDC = target: T2, S. cerevisiae PDC (Saccharomyces cerevisiae, UniProt P06169); set-up: method as in PMID 37201323; details: assay conditions of previous study; cited from earlier work
T2 construct: purchased Sigma
T2 sequence (P06169 2-563 limits assumed): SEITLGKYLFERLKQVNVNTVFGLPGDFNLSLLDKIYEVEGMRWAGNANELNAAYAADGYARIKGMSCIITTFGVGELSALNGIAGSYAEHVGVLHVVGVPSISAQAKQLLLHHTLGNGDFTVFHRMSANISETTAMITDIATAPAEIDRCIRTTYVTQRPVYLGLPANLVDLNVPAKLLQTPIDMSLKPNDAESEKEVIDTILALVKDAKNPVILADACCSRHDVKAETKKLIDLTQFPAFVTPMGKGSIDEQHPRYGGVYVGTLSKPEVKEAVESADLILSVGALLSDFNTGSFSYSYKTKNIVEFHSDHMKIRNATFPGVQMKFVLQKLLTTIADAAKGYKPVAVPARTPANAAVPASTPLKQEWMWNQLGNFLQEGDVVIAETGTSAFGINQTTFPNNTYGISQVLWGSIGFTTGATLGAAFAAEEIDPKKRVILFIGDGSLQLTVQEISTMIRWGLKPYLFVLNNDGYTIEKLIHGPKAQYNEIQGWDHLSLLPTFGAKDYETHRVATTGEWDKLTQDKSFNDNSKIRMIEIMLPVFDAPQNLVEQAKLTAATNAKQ

Cc1ncc(Cn2cc(CCOP(=O)(O)O)nn2)c(N)n1 [compound 5]
IC50 (Porcine PDH E1): 6.6 µM
membrane permeability in PAMPA (in words) [1]: membrane-impermeable
Papp at 10 h, 500 µM ([1]; PAMPA, compounds at 500 µM, 5% DMSO in PBS pH 7.4, 10 hours, room temperature, read-out: PAMPA log Pe (converted)): 0.398 ×10⁻⁶ cm/s
Fa (fraction absorbed) ([1]; compounds at 500 µM, 5% DMSO in PBS pH 7.4, 10 hours, room temperature): 2%
IC50 (A. viridans PO): 348 µM
IC50 (E. coli OGDH E1): 170 µM
IC50 (S. cerevisiae PDC): 1300 µM
